Assay results from patent US20240299393A1, “SMALL MOLECULE DISRUPTORS OF PROTEIN INTERACTIONS IN HISTONE DEACETYLASE COMPLEXES” (Dana-Farber Cancer Institute, Inc., priority 2021, published 2024).

How the values were obtained:
[1] = system: DOI-induced head-twitch response (HTR); assay: DOI-induced head-twitch response assay; assay type: in vivo, mouse
Text: Adult male C57BL/6N mice (10-12 weeks old) purchased from Taconic laboratories (Bar Arbor, ME), and C57BL/6N Hdac2 cKO inhouse bred male mice (described previously in Ibi et al 2017) were used for the experimental groups (vehicle and E6R). For assays including Hdac2 cKO mice, we bred homozygous Hdac2loxPAoxP mice to the CaMKIIα-Cre transgenic line and used the Hdac2loxP/loxP:CaMKIIα-Cre (Hdac2 cKO) mice and control littermates. All animals were housed in groups of 5-6 in 500 cm^2 Plexiglas cages (Allentown, NJ) in the animal care facilities at 12 h light/dark cycle (lights on, 8:00 to 20:00) at 23° C. with food and water ad libitum. Cages contained bedding (Teklad ¼″ Corncob bedding, Envigo) and one Nestlests™ (Ancare, Bellmore, NY, USA). […] For the Hdac2 cKO group (n=5), an intraperitoneal injection (2 mg/kg; 10 μL/g) of the psychedelic drug (±)-2,5-dimethoxy-4-iodoamphetamine (DOI) (Sigma Aldrich) was delivered and HTR recorded and quantified. […] 24 h after the last injection, DOI (2 mg/kg; 10 μL/g) was injected and HTR subsequently recorded and quantified. […] HTR were recorded during both habituation and post-DOI administration for 30 min and quantified in 15 min bins. […] 24 h after the last injection, both groups received 2 mg/kg DOI, and HTR was recorded for each group as described above. […]

[2] = system: HDAC-regulated genes in spleen and frontal cortex; assay: Pilot RT-qPCR in spleen and frontal cortex of treated mice; assay type: in vivo, mouse; conditions: 5, 15 or 50 mg/kg, chronic
Method: For the pilot RT-qPCR experiment, in addition to the vehicle condition (ethanol 100%/kolliphor/saline 0.9% in a proportion of 1:1:14.4; for the 50 mg/kg dose, 14 μL NaOH 1M were also added), three doses (mg/kg) of E6R were tested: 5, 15, and 50, with 4 (vehicle) or 3 (E6R) animals per group. A dose of 50 mg/kg was picked to conduct further experiments. For the RNA-Seq experiment, E6R was dissolved in a vehicle solution containing saline 55% v/v, DMSO 34% v/v, ethanol 5% v/v, kolliphor EL (Sigma-Aldrich, MO, USA) 5% v/v, NaOH 1M 1% v/v. The vehicle group received the same solution. Animals were injected daily by intraperitoneal (I.P.) injection with 5 μL/g of the solution (50 mg/kg of the drug or vehicle) at 11 am for 10 days. Animal wellness was verified by daily visual inspection and weighing. […] On the 11th day, animals were sacrificed by bleeding via heart puncture under carbon dioxide anesthesia. The brains were quickly removed and the bilateral frontal cortex (bregma 1.90 to 1.40 mm) was dissected followed by total RNA extraction. The spleens were also collected in the pilot RT-qPCR experiments.
Qiagen™ RNeasy mini kits (Valencia, CA) were used following the manufacturer's protocol. […] Purity of the RNA preparation was determined as the 260/280 nm ratio with expected values between 2 and 2.3. […]

C[C@@H](NC(=O)c1c(O)n2ccccc2nc1=O)c1ccccc1 [E6R, 4-hydroxy-2-oxo-N—((R)-1-phenylethyl)-3,4-dihydro-2H-pyrido[, 2-a]pyrimidine-3-carboxamide]
DOI-induced HTR ([1]; HDAC2 cKO mice, 50 mg/kg chronic, vs untreated HDAC2 cKO): no additive effect
DOI-induced HTR ([1]; WT mice, 50 mg/kg chronic 10 days, DOI 2 mg/kg): significantly reduced
expression levels of tested genes in spleen and frontal cortex [2]: able to change expression levels
